Source: ChEMBL document CHEMBL1201862, “PubChem BioAssay data set” (2004)
pIC50: −log10 of the molar value. Active and inactive are the calls of the source.

Tests used:
[1] = molecular target: T1, Zinc finger protein mex-5 (Caenorhabditis elegans, UniProt Q9XUB2); assay: potency of MEX-5 RNA-binding blockers – biochemical, C. elegans, fluorescence polarization, dose response (AID 1960)
T1 sequence (Q9XUB2 whole entry): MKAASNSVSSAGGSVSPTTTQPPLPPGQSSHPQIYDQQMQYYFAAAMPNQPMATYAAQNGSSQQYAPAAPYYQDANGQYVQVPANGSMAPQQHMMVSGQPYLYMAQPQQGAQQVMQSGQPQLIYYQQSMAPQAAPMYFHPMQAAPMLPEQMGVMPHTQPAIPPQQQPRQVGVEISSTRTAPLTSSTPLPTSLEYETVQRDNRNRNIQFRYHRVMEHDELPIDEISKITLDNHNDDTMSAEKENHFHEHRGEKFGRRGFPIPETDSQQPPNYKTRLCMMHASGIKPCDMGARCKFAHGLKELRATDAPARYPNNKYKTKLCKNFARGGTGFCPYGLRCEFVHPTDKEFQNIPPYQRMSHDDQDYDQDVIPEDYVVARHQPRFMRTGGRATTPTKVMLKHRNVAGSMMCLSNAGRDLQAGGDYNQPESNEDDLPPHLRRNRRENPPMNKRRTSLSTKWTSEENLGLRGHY

[2] = molecular target: T2, RNA-binding protein pos-1 (Caenorhabditis elegans, UniProt G5EF15); assay: disruptors of C. elegans POS-1 RNA interaction – biochemical, fluorescence polarization, dose response (AID 1964);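 further: purified POS-1 fused to maltose binding protein made in E. coli; potency of compounds blocking POS-1 binding to fluorescent RNA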
T2 sequence (G5EF15 whole entry): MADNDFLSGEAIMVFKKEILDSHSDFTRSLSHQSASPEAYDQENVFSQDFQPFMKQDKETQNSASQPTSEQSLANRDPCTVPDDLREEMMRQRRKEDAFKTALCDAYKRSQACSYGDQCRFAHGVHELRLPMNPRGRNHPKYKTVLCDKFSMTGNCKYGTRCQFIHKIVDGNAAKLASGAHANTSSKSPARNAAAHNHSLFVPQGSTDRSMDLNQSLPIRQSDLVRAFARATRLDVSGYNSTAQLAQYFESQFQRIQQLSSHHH

[3] = cells
[4] = HGIII-sPLA2 enzyme inhibition potency – biochemical, QFRET, IC50, dose response (AID 743457);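 further: green fluorescence rise as the enzyme cleaves BODIPY PC-A2 in liposomes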
[5] = Luminescence Cell-Based Dose Response to Identify Activators of 5'UTR Stem-Loop Driven Prion Protein mRNA Translation in H4-C Neuroglioblastoma Cells. [Related pubchem assays: 1829 (Project Summary), 1814 (Primary HTS)]; format: functional
[6] = Luminescence Cell-Based Dose Response HTS to Identify Activators of Luciferase Translation or Activity in H4 […] Cells. [Related pubchem assays: 1829 (Project Summary), 1814 (Primary HTS)]; format: functional
[7] = Counterscreen for […] of the human trace amine associated receptor 1 (TAAR1): Fluorescence-based cell-based high throughput dose response assay to identify nonselective Ga16 agonists.; format: functional
[8] = Luminescence Cell-Based Dose Confirmation to Identify Activators of 5'UTR Stem-Loop Driven Alpha-Synuclein mRNA Translation in H4 Neuroglioblastoma Cells. [Related pubchem assays: 1829 (Project Summary), 1814 (Primary HTS)]; format: functional
[9] = Luminescence Cell-Based Dose Response to Identify Activators of Luciferase Translation or Activity in H4-C Neuroglioblastoma Cells. [Related pubchem assays: 1829 (Project Summary), 1814 (Primary HTS)]; format: functional
[10] = molecular target: T3, Trace amine-associated receptor 1 (Homo sapiens, UniProt Q96RJ0); assay: Fluorescence-based cell-based high throughput dose response assay to identify antagonists of the human trace amine associated receptor 1 (TAAR1).; format: functional
T3 sequence (Q96RJ0 whole entry): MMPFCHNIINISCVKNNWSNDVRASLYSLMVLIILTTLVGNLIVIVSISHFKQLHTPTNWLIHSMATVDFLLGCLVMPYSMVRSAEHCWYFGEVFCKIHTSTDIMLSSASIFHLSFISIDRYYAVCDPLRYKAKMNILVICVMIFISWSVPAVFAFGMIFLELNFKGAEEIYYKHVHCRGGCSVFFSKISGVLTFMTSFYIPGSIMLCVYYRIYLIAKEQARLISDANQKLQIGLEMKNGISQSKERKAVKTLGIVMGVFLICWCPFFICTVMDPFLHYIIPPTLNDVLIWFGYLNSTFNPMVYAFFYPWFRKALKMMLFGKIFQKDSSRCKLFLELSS

[11] = system: H4; assay: Luminescence Cell-Based Dose Response HTS to Identify Activators of 5'UTR Stem-Loop Driven Prion Protein mRNA Translation in H4 Neuroglioblastoma Cells. [Related pubchem assays: 1829 (Project Summary), 1814 (Primary HTS)]; format: functional; conditions: Homo sapiens
[12] = Counterscreen for antagonists of the human trace amine associated receptor 1 (hTAAR1): Fluorescence-based cell-based high throughput dose response assay to identify nonselective Ga16 antagonists.; format: functional
[13] = molecular target: T3, Trace amine-associated receptor 1; assay: Counterscreen for antagonists of the human trace amine associated receptor 1 (hTAAR1): Fluorescence-based cell-based high throughput dose response assay to identify TAAR1 Agonists.; format: functional
[14] = molecular target: Glucose-6-phosphate 1-dehydrogenase (Homo sapiens, UniProt P11413); assay: inhibition of Homo sapiens G6PD, dose series – biochemical, fluorescence, selectivity assay for P. falciparum G6PD inhibitor project, dose response (AID 504792); format: functional
[15] = molecular target: 1-phosphatidylinositol 4,5-bisphosphate phosphodiesterase gamma-1 (Homo sapiens, UniProt P19174); assay: Counterscreen for inhibitors of phospholipase C isozymes (PLC-B3): Fluorescence-based biochemical high throughput dose response assay to identify inhibitors of phospholipase C isozymes (PLC-gamma1).
[16] = molecular target: 1-phosphatidylinositol 4,5-bisphosphate phosphodiesterase beta-3 (Homo sapiens, UniProt Q01970); assay: Fluorescence-based biochemical high throughput dose response assay to identify inhibitors of phospholipase C isozymes (PLC-B3).
[17] = inhibition of ADAM10 peptide cleavage – biochemical, FRET peptide substrate, recombinant human ADAM10, selectivity assay for ADAM17 exosite inhibitor project, dose response (AID 743259);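 further: ADAM10 enzyme cleaving a FRET peptide substrate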
[18] = molecular target: Disintegrin and metalloproteinase domain-containing protein 17 (Homo sapiens, UniProt P78536); assay: exosite inhibitors of ADAM17, dose response, biochemical (AID 743260)
[19] = molecular target: T4, DNA repair and recombination protein RAD54-like (Homo sapiens, UniProt Q92698); assay: RAD54 Holliday junction migration blockers – biochemical, fluorescence, cherry-picked samples, dose series, confirmation (AID 651657); format: functional
T4 sequence (Q92698 whole entry): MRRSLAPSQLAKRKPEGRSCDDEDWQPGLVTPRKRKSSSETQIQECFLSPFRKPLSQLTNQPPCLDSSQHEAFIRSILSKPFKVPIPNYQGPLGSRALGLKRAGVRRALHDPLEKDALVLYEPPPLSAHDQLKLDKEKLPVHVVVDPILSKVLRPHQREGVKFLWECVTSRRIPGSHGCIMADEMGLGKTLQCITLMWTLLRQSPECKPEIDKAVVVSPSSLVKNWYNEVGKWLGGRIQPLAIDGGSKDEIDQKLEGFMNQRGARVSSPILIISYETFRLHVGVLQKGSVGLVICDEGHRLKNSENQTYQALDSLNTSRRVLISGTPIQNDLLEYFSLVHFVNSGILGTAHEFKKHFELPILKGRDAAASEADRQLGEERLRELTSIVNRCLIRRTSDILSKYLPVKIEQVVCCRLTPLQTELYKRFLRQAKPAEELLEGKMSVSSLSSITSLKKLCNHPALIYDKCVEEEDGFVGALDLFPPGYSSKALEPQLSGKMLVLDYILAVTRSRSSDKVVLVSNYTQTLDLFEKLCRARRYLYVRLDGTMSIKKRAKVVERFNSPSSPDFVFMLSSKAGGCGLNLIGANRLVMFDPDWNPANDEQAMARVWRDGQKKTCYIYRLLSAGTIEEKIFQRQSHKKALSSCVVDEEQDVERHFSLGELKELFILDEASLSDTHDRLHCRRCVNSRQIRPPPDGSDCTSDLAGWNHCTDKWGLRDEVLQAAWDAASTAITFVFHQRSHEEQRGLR

[20] = cells; conditions: A549
[21] = general cell-killing toxicity readout – plate reader, dry powder samples, cytotoxicity control for PAX8 inhibitor project, dose response (AID 743021); format: functional, cell-based
[22] = molecular target: Paired box protein Pax-8 (Homo sapiens, UniProt Q06710); assay: PAX8 transcriptional activity inhibition in RMG-I – RMG-I cells, luciferase, cherry-pick, dose response (AID 687027); format: functional, cell-based;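 further: luciferase reporter driven by Pax8 target thyroperoxidase promoter measured by SteadyGlo luminescence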
[23] = OVCAR-3 cell viability loss – plate reader, dry powder samples, PAX8 inhibitor project, dose response (AID 743044); format: functional, cell-based
[24] = OVCAR8 cell viability loss – plate reader, dry powder samples, PAX8 project, dose response (AID 743197); format: functional, cell-based; conditions: OVCAR-8
[25] = IGROV1 cell killing – plate reader, dry powder samples, PAX8 inhibitor project, dose response (AID 743043); format: functional, cell-based; conditions: IGROV-1
[26] = toxicity toward immortalized ovarian surface epithelium – cell-based, plate reader, dry powder samples, cytotoxicity control for PAX8 inhibitor project, dose response (AID 743045); format: functional
[27] = molecular target: Metabotropic glutamate receptor 3 (Rattus norvegicus, UniProt P31422); assay: inhibitors of rat mGlu3 Galpha15 signaling – TREx293 cells, calcium flux, mGlu3 NAM project, dose response (AID 651840); format: functional
[28] = P. falciparum Dd2 growth inhibitors, dose response, SYBR Green, cherry-picked samples (AID 1159567); format: functional, cell-based
[29] = HepG2 cell viability loss – cherry-picked samples, cytotoxicity control, dose response (AID 1053183); format: functional, cell-based
[30] = toxicity to human hepatoma HepG2 cells – cell-based, cherry-picked samples, cytotoxicity control, dose response (AID 1159577); format: functional
[31] = blockers of FN fibrillogenesis by fibroblasts – AH1F cells, Alexa488-FN fluorescence, cherry-picks, dose response (AID 1035475); format: functional, cell-based
[32] = viability loss in A549 lung cancer cells – cell-based, cherry-picks, […], cytotoxicity control, dose response (AID 1053119); format: functional
[33] = viability loss in HEK293T cells – cell-based, CellTiter-Glo luminescence, dry powder, set 6, cytotoxicity control, dose response (AID 651949); format: functional; conditions: HEK293
[34] = A Cell-Based Confirmatory Screen for Compounds that Inhibit VEEV, TC-83 (8).; format: functional
[35] = A Cell-Based Confirmatory Screen for Compounds that Inhibit VEEV, TC-83 (6).; format: functional
[36] = molecular target: Potassium channel subfamily K member 9 (Homo sapiens, UniProt Q9NPC2); assay: KCNK9 flux blockade, concentration-response – cell-based, FluxOR thallium flux, selectivity assay for TASK1 inhibitor project, SAR follow-up (AID 652211); format: functional;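 further: potency is for inhibitors of the channel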
[37] = molecular target: Potassium channel subfamily K member 3 (Homo sapiens, UniProt O14649); assay: inhibition of human KCNK3 channel flux – CHO cells, FluxOR thallium flux, SAR follow-up (AID 652212); format: functional
[38] = Late stage assay provider results from the probe development effort to identify inhibitors of the Plasmodium falciparum M18 Aspartyl Aminopeptidase (M18AAP): radiolabel-based cell-based dose response assay to identify compounds that inhibit P. falciparum growth in RBCs, Set 2..; format: functional

Chain of Paired box protein Pax-8 (Q06710 whole entry): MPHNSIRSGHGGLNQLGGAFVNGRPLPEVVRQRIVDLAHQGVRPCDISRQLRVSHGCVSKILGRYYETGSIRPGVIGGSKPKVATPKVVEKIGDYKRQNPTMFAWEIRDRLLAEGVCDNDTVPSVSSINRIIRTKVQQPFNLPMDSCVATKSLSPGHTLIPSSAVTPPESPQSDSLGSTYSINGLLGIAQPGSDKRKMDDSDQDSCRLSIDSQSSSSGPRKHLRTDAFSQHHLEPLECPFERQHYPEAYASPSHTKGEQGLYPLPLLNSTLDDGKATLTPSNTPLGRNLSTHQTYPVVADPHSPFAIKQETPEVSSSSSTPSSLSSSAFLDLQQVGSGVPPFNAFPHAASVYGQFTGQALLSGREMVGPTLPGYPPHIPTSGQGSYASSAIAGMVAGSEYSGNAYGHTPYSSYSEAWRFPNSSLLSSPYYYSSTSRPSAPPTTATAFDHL
Chain of Disintegrin and metalloproteinase domain-containing protein 17 (P78536 whole entry, the tested form may be a part): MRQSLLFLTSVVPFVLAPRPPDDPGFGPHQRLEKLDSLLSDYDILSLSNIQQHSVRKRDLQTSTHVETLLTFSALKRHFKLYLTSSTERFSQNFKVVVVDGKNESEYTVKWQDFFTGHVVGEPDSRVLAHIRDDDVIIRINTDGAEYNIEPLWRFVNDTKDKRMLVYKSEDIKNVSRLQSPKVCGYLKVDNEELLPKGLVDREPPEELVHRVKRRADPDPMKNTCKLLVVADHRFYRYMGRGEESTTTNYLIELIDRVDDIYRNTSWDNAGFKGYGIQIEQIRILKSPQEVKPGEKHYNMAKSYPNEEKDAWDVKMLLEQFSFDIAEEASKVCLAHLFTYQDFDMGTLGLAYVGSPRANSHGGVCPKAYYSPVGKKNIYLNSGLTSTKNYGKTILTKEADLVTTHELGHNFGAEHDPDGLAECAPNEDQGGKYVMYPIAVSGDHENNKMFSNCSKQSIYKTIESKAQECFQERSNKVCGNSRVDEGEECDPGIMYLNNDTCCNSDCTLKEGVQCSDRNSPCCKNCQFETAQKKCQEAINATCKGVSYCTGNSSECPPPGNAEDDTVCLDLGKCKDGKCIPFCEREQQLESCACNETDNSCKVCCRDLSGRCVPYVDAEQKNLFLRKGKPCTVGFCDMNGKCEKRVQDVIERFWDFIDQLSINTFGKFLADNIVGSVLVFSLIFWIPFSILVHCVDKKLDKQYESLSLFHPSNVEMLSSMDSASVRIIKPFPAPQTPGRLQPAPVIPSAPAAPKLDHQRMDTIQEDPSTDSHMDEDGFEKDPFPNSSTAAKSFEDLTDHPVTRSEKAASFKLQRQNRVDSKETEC
Chain of Potassium channel subfamily K member 3 (O14649 whole entry): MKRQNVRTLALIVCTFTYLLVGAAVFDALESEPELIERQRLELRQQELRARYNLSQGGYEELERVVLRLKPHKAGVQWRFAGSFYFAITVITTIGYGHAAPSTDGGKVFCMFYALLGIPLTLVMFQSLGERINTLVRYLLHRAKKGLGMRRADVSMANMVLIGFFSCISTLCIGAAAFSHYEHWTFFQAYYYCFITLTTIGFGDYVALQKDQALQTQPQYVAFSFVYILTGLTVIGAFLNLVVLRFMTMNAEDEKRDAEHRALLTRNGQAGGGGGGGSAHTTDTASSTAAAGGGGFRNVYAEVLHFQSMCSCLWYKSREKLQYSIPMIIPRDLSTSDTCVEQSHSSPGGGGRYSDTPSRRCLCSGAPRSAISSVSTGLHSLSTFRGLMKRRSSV
Chain of Potassium channel subfamily K member 9 (Q9NPC2 whole entry): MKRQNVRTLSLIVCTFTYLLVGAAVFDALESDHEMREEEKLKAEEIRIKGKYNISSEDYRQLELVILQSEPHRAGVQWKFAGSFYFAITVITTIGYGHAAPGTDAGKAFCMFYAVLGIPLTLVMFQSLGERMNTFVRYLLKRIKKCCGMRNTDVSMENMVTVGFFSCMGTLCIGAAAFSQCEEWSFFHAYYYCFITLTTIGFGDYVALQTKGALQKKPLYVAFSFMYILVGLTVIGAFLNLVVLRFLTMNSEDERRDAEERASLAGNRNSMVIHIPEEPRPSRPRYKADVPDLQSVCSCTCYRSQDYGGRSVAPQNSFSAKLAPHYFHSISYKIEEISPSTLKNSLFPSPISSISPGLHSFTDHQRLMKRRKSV
Chain of 1-phosphatidylinositol 4,5-bisphosphate phosphodiesterase beta-3 (Q01970 whole entry): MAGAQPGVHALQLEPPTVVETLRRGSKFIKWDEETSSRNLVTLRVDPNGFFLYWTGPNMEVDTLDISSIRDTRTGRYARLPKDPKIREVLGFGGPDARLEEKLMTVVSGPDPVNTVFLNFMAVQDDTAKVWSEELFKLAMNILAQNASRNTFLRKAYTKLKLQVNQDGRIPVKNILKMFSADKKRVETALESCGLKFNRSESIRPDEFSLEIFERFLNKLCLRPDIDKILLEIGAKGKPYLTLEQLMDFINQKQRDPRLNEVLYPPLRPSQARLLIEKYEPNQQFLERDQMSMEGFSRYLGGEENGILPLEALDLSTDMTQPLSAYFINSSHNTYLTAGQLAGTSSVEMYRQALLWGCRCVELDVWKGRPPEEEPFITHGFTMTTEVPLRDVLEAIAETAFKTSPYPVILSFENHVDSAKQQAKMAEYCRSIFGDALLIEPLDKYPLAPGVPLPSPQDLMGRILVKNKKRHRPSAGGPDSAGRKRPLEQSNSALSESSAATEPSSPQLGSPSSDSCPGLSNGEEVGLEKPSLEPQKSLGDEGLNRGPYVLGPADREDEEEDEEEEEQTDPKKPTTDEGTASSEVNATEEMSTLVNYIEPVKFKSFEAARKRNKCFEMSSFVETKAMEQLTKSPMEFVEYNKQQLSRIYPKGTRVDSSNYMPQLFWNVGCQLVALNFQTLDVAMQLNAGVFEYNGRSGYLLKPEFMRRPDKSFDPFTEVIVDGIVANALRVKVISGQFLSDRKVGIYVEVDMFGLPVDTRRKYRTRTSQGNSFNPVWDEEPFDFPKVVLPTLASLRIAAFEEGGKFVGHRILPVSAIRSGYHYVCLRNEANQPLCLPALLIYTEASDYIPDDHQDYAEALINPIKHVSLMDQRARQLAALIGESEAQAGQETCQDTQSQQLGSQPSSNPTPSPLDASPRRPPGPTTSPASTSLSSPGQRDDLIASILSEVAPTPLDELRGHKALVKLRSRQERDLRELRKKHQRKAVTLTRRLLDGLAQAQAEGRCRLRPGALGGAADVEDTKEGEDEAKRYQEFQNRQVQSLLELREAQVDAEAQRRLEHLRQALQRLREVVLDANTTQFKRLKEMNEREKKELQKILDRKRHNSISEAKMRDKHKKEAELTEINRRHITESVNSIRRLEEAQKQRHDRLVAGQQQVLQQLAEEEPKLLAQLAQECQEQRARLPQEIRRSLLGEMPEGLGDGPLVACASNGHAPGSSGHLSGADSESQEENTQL
Chain of Glucose-6-phosphate 1-dehydrogenase (P11413 whole entry): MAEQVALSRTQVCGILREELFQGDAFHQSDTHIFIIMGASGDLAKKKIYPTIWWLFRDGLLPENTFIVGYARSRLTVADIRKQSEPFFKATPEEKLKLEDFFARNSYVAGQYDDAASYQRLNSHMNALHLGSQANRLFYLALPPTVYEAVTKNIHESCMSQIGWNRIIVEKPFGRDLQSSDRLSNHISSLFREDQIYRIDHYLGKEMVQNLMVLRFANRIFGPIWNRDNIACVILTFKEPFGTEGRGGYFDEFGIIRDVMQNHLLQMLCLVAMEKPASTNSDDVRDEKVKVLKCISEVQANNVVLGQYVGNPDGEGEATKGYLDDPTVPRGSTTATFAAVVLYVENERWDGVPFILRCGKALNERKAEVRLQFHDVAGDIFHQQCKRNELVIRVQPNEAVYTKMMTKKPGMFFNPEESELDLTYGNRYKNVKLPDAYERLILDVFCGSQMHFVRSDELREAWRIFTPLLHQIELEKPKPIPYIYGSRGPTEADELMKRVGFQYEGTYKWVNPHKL
Chain of Metabotropic glutamate receptor 3 (P31422 whole entry): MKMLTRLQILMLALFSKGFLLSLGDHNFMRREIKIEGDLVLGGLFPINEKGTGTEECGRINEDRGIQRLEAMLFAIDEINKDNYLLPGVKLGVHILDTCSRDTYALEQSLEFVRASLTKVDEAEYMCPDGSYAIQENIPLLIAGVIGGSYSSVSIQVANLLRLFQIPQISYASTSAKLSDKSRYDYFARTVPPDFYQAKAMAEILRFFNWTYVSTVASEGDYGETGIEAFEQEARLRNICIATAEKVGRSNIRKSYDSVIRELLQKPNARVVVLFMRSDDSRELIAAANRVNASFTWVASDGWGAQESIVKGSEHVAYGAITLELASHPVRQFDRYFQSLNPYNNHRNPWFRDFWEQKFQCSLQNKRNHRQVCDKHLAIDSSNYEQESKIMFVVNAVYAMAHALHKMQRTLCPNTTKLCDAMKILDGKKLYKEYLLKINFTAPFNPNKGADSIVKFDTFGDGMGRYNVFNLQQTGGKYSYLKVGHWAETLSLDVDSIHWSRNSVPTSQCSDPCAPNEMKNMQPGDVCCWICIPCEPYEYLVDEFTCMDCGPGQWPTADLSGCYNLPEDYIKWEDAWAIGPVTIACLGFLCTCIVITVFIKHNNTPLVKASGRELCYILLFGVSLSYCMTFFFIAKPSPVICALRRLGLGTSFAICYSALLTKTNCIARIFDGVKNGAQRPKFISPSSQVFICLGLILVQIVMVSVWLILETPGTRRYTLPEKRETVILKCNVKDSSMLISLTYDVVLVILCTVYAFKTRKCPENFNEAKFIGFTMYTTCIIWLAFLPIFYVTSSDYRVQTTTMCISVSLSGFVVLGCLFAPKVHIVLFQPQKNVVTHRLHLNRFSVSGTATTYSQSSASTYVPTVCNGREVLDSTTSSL

With CCn1c(=N)c(S(=O)(=O)c2ccccc2)cc2c(=O)n3ccccc3nc21 the EC50 [1] was > 300 µM (not active), the EC50 [2] was > 300 µM (not active) and the AC50 [3] was 1.01 µM (active).
For CCCCCC(=O)NNC(=S)NC(=O)c1ccccc1[N+](=O)[O-], the IC50 [4] was > 122 µM (inactive).
In the case of Cc1cc(/C=C(\C#N)C(=O)NCc2cccs2)c(C)n1-c1ccccc1F, the EC50 [5] was 0.952 µM (active), the EC50 [6] was < 0.1 µM (active) and the EC50 [7] was > 29.9 µM (inactive). For the same compound, the EC50 [8] was 0.472 µM (active), the EC50 [9] was 0.225 µM (active) and the IC50 [10] was 3.75 µM (active). The EC50 [11] was 61 µM (active), the IC50 [12] was > 29.9 µM (inactive) and the EC50 [13] was > 29.9 µM (inactive).
With Cn1cc(S(=O)(=O)CC(=O)N2CCc3ccccc32)c2ccccc21 the IC50 [14] was > 80 µM (inactive), the IC50 [15] was > 122 µM (inactive) and the IC50 [16] was > 122 µM (inactive).
With COC(=O)c1c(C)n(-c2ccc(OC)cc2)c2ccc(O)cc12 the IC50 [17] was > 69.5 µM (inactive) and the IC50 [18] was > 69.5 µM (inactive).
For Cc1nc2ccccc2c2oc(C(=O)NCCCN3CCC(C)CC3)cc12, the AC50 [19] was 36.5 µM (active) and the AC50 [20] was > 52 µM (inactive).
With C[C@@H]1CN([C@H](C)CO)C(=O)c2cc(NS(=O)(=O)c3ccc(F)cc3)ccc2O[C@@H](C)CCCCO[C@@H]1CN(C)Cc1ccccc1 the AC50 [21] was 2.88 µM (active), the AC50 [22] was 7.31 µM (active) and the AC50 [23] was 21.1 µM (active). The AC50 [24] was 39.4 µM (active).
In the case of C[C@@H]1CN([C@H](C)CO)C(=O)c2cc(NC(=O)Nc3ccccc3)ccc2O[C@@H](C)CCCCO[C@H]1CN(C)Cc1ccc(C(F)(F)F)cc1, the AC50 [25] was 36.2 µM (active), the AC50 [22] was 10.9 µM (active) and the AC50 [23] was 24.2 µM (active). For the same compound, the AC50 [26] was 31.7 µM (active).
For COc1ccc(C#Cc2ccc(C(=O)N3CCC[C@@H](O)C3)cc2F)cc1, the pIC50 [27] was 6.40.
In the case of COc1cc(CN2C[C@@H]3N[C@H](C2)[C@H]3c2ccc(-c3ccc(C#N)cc3)cc2)cc(OC)c1, the AC50 [28] was 1.33 µM (active), the AC50 [29] was 24.3 µM (active) and the AC50 [30] was 8.15 µM (active).
With CC(C)(C)[S@+]([O-])N1Cc2cc(C(=O)NCc3ccccc3F)nc(-c3cccc(-c4cncnc4)c3)c2[C@@H]1CCO the AC50 [31] was 50.8 µM (active) and the AC50 [32] was > 52 µM (inactive).
In the case of COc1ccc(-c2nnc(SCc3ccc(Cl)cc3)o2)cc1, the AC50 [33] was > 52 µM (inactive).
With O=c1c2cc([N+](=O)[O-])ccc2nc(CN2CCNCC2)n1-c1ccsc1 the IC50 [34] was 1.74 µM (active) and the IC50 [35] was 1.74 µM (active).
For COc1ccccc1NC(=O)c1cccc(NC(=O)C2CCCCC2)c1, the IC50 [36] was 2.16 µM (active) and the IC50 [37] was 0.086 µM (active).
With Oc1ccc(C2CCCN(c3ccnc4ccccc34)C2)cc1O (stereo not given) the IC50 [38] was 4.2 µM (active).
